Structures can show the parent of a compound that is named as a salt.
These compounds were tested against T1, recombinant human α1D receptor (Homo sapiens, UniProt P25100) (assay: Adrenergic α1D selectivity binding assay ([3H]-prazosin)). Details: inhibition of [3H]-prazosin binding, HEK293 membranes, read-out: α1 bind pIC50 (converted).
T1 construct: expressed in transfected cells; host or cells: HEK293
T1 sequence (P25100 1-572): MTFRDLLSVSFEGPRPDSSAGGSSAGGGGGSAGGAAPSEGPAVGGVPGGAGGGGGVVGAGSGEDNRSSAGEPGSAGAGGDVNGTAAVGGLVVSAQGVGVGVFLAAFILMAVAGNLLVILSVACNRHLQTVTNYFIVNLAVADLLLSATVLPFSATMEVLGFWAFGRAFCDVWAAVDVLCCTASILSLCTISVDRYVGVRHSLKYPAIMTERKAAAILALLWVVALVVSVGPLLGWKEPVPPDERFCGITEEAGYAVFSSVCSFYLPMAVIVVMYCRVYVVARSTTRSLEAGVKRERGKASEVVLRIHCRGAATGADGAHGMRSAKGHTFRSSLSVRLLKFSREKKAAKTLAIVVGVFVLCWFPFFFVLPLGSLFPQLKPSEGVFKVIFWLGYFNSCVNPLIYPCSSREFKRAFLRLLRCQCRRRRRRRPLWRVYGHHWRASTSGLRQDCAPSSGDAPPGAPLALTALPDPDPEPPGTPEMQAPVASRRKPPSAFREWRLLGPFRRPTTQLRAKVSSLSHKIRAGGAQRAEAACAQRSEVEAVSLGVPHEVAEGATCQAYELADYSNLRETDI
Experimental: Membranes were prepared from human embryonic kidney 293 (HEK293) cells expressing recombinant human α1D receptor. These were diluted in Assay Buffer (50 mM HEPES, 1 mM EDTA, pH 7.4) to provide a final concentration of membranes that gave a clear window between maximum and minimum specific binding.
Assays were performed in U-bottomed 96-well polypropylene plates. 10 μl [^3H]-prazosin (0.3 nM final concentration) and 10 μl of test compound (10× final concentration) were added to each test well. For each assay plate 8 replicates were obtained for [^3H]-prazosin binding in the presence of 10 μl vehicle (10% (v/v) DMSO in Assay Buffer; defining maximum binding) or 10 μL BMY7378 (10 μM final concentration; defining non-specific binding (NSB)). Membranes were then added to achieve a final volume of 100 μL. The plates were incubated for 2 h at room temperature and then filtered onto PEI coated GF/B filter plates, pre-soaked for 1 h in Assay Buffer, using a 96-well plate Tomtec cell harvester. Five washes with 250 μl wash buffer (50 mM HEPES, 1 mM EDTA, pH 7.4) were performed at 4° C. to remove unbound radioactivity. The plates were dried then sealed from underneath using Packard plate sealers and MicroScint-O (50 μl) was added to each well. The plates were sealed (TopSeal A) and filter-bound radioactivity was measured with a scintillation counter (TopCount, Packard BioScience) using a 3-minute counting protocol.
Total specific binding (B0) was determined by subtracting the mean NSB from the mean maximum binding. NSB values were also subtracted from values from all other wells. […] Data was fitted to a four parameter logistic equation to determine the compound potency, which was expressed as pIC50 (negative log molar concentration inducing 50% inhibition of [^3H]-prazosin binding).

| Compound | IC50 [nM] |
| --- | --- |
| Cn1nccc1-c1cccc(CCOCCC(=O)N(CCNCCc2ccc(O)c3c2OCC(=O)N3)C2CCCCC2)c1 [Example 03, N-Cyclohexyl-N-(2-(2-(5-hydroxy-3-oxo-3,4-dihydro-2H-benzo[b][1,4]oxazin-8-yl)ethylamino)ethyl)-3-(3-(1-methyl-1H-pyrazol-5-yl)phenethoxy)propanamide Trifluoroacetic Acid Salt] | 2000 |
| CC(C)n1cc(-c2cccc(CCOCCC(=O)N(CCNCCc3ccc(O)c4c3OCC(=O)N4)C3CCCCC3)c2)nn1 [Example 12, N-Cyclohexyl-N-(2-(2-(5-hydroxy-3-oxo-3,4-dihydro-2H-benzo[b][1,4]oxazin-8-yl)ethylamino)ethyl)-3-(3-(1-isopropyl-1H-1,2,3-triazol-4-yl)phenethoxy)propanamide Trifluoroacetic Acid Salt] | 1580 |
| O=C1COc2c(CCNCCN(C(=O)CCOCCc3cccc(-c4nn[nH]n4)c3)C3CCCCC3)ccc(O)c2N1 [Example 15, 3-(3-(2H-Tetrazol-5-yl)phenethoxy)-N-cyclohexyl-N-(2-(2-(5-hydroxy-3-oxo-3,4-dihydro-2H-benzo[b][1,4]oxazin-8-yl)ethylamino)ethyl)propanamide Trifluoroacetic Acid Salt] | > 10000 |
| O=C1COc2c(CCNCCN(C(=O)CCOCCc3cccc(-c4cnco4)c3)C3CCCCC3)ccc(O)c2N1 [Example 10, N-Cyclohexyl-N-(2-(2-(5-hydroxy-3-oxo-3,4-dihydro-2H-benzo[b][1,4]oxazin-8-yl)ethylamino)ethyl)-3-(3-(oxazol-5-yl)phenethoxy)propanamide Trifluoroacetic Acid Salt] | 316 |
| Cn1cc(-c2cc(F)cc(CCOCCC(=O)N(CCNCCc3ccc(O)c4c3OCC(=O)N4)C3CCCCC3)c2)cn1 [Example 17, N-Cyclohexyl-3-(3-fluoro-5-(1-methyl-1H-pyrazol-4-yl)phenethoxy)-N-(2-(2-(5-hydroxy-3-oxo-3,4-dihydro-2H-benzo[b][1,4]oxazin-8-yl)ethylamino)ethyl)propanamide Trifluoroacetic Acid Salt] | 501 |
| CC(C)n1cc(-c2cccc(CCOCCC(=O)N(CCNCCc3ccc(O)c4c3OCC(=O)N4)C3CCCC3)c2)cn1 [Example 22, N-Cyclopentyl-N-(2-(2-(5-hydroxy-3-oxo-3,4-dihydro-2H-benzo[b][1,4]oxazin-8-yl)ethylamino)ethyl)-3-(3-(1-isopropyl-1H-pyrazol-4-yl)phenethoxy)propanamide Trifluoroacetic Acid Salt] | 794 |
| Cn1nnc(-c2cccc(CCOCCC(=O)N(CCNCCc3ccc(O)c4c3OCC(=O)N4)C3CCCCC3)c2)n1 [Example 07, N-Cyclohexyl-N-(2-(2-(5-hydroxy-3-oxo-3,4-dihydro-2H-benzo[b][1,4]oxazin-8-yl)ethylamino)ethyl)-3-(3-(2-methyl-2H-tetrazol-5-yl)phenethoxy)propanamide Trifluoroacetic Acid Salt] | 1000 |

Continued, values first:

| IC50 [nM] | Compound |
| --- | --- |
| 2510 | COCCn1cc(-c2cccc(CCOCCC(=O)N(CCNCCc3ccc(O)c4c3OCC(=O)N4)C3CCCCC3)c2)cn1 [Example 36, N-Cyclohexyl-N-(2-(2-(5-hydroxy-3-oxo-3,4-dihydro-2H-benzo[b][1,4]oxazin-8-yl)ethylamino)ethyl)-3-(3-(1-(2-methoxyethyl)-1H-pyrazol-4-yl)phenethoxy)propanamide Trifluoroacetic Acid Salt] |
| 1000 | Cc1nc(-c2cccc(CCOCCC(=O)N(CCNCCc3ccc(O)c4c3OCC(=O)N4)C3CCCCC3)c2)no1 [Example 27, N-Cyclohexyl-N-(2-(2-(5-hydroxy-3-oxo-3,4-dihydro-2H-benzo[b][1,4]oxazin-8-yl)ethylamino)ethyl)-3-(3-(5-methyl-1,2,4-oxadiazol-3-yl)phenethoxy)propanamide Trifluoroacetic Acid Salt] |
| 2000 | Cn1ccnc1-c1cccc(CCOCCC(=O)N(CCNCCc2ccc(O)c3c2OCC(=O)N3)C2CCCCC2)c1 [Example 33, N-Cyclohexyl-N-(2-(2-(5-hydroxy-3-oxo-3,4-dihydro-2H-benzo[b][1,4]oxazin-8-yl)ethylamino)ethyl)-3-(3-(1-methyl-1H-imidazol-2-yl)phenethoxy)propanamide] |

Source: US8017602B2, “N-(2-(2-(5-hydroxy-3-oxo-3,4-dihydro-2H-benzo[b][1,4]oxazin-8-yl)ethylamino)ethyl)-3-(phenethoxy)propanamide derivatives, processes for their preparation, pharmaceutical compositions containing them and their use in therapy” (AstraZeneca AB, priority 2008, dated 2011)
